This is an account of results in patent publication EP4707393A1, “DOUBLE-STRANDED SIRNA, CONJUGATE THEREOF AND USE THEREOF” (CMS Research & Development Pte. Ltd., priority 2023, dated 2024).

One data set has as its system LPA mRNA. As to the kind of experiment: In vivo efficacy in LPA-HDI mouse model (liver LPA mRNA). More on the design: species or system BALB/c mouse. Particulars: 3 mg/kg single subcutaneous injection, Day 14, relative to PBS blank group, 4 mice per group. The protocol:
The knockdown effect of the test double-stranded siRNA conjugate on the target gene LPA upon entry into the mouse is evaluated by rapid high-pressure injection of the physiological saline containing recombinant plasmid pcDNA-LPA carrying the target gene via the tail vein.
pcDNA-LPA plasmid, BALB/c mouse, PBS (phosphate buffer), and conjugates of the present invention.
Six-week-old female BALB/c mice were ordered and acclimated/quarantined for three days upon arrival in the animal room.
On Day 0, the mice were randomly grouped based on body weight data. After grouping, all mice were given a single administration via subcutaneous injection, with a dose volume of 10 mL/kg. Mice in Group 1 received PBS; mice in the other groups received the conjugates (dissolved in PBS).
On Day 13 post-administration, all mice were injected with normal saline containing the pcDNA-LPA plasmid via the tail vein within 5 seconds. The injection volume (mL) = mouse body weight (g) × 8%. The amount of plasmid injected per mouse was 10 µg.
On Day 14 post-administration, all groups of mice were euthanized by CO2 inhalation, and 2 liver samples were collected from each mouse. Liver samples were treated overnight with RNAlater at 4 °C, then RNAlater was removed, and stored at -80 °C for detection of LPA gene expression levels.

In data set [1] the test system is human LPA gene (Genbank number: NM_005577.4). As to the kind of experiment: Inhibitory activity against LPA mRNA, psiCHECK-2 dual-luciferase reporter vector in Huh7 cells. The data set is classed as cell-based. Particulars: Huh7 cells transfected with LPA_psiCHECK-2 plasmid, RNAiMAX transfection. A digest of the protocol:
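Huh7 cells transfected with psiCHECK-2 carrying human LPA, then treated next day with compounds (3 concentrations) delivered by RNAiMAX. Dual-Glo readout of firefly and Renilla luciferase per well. Percent inhibition calculated from the reporter ratio relative to the RNAiMAX control.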
In general terms: Reporter assays use an easily measured gene product as a stand-in for the process of interest.

For another data set, the system named is hPBMCs. As to the kind of experiment: Immunogenicity test in hPBMCs (IL-6 and TNF-α ELISA of supernatant). The data set is classed as cell-based, human. The settings on record: donor 1 hPBMCs, 18-20 h. Here is the method: 1 Experimental material • 1.1 Double-stranded siRNA conjugates • 1.2 hPBMCs, purchased from Shanghai Sailybio Medical Co., LTD. • 1.3 Main reagents: Penicillin-Streptomycin (Cat. No.: 15140122), RNase-free water (Cat. No.: AM9938), IL-6 ELISA kit (Cat. No.: 555220), TNF-α ELISA kit (Cat. No.: 555212), LPS (Cat. No.: L2630), etc. 2 Experimental method • 2.1 Compound Preparation: Compounds were prepared as stock solutions with enzyme-free water. Compound weight = powder weight * purity. The concentration of prepared solutions was 900 µg/mL, followed by three-fold serial dilution with enzyme-free water. Each concentration was diluted 10-fold with 1640 medium, resulting in a final enzyme-free water content of 5.0%. • 2.2 Experimental procedure: • 2.2.1 PBMC cells were resuscitated one day in advance and incubated overnight in 1640 complete medium. • 2.2.2 On the day of the experiment, PBMC cells were centrifuged at 300 × g for 8 minutes, and the cell density was adjusted to 1.6 × 10^6 mL with 1640 complete medium. The cells were then added to a 96-well plate, 125 µL per well, and incubated in a 37 °C, 5% CO2 incubator for 15 minutes. • 2.2.3 The diluted test compounds were added to the 96-well plate according to the plate map, all in duplicate, 125 µL for each well; the positive control group and the blank group were added with an equal volume of 1640 complete culture medium containing the same amount of enzyme-free water. • 2.2.4 After gently shaking, the well plates were incubated in an incubator at 37 °C for 18-20 h. The supernatant was collected by centrifugation, and secretions of TNF-α and IL-6 were detected by ELISA. • 2.2.5 Data were analyzed using GraphPad Prism 8 software. 3 Experimental results Table 10. IL-6 and TNF-α levels in the cell supernatant of donor 1 hPBMCs treated with different doses of test compounds
(In an ELISA, binding on a coated surface is turned into a signal by an enzyme label.)

As usually defined, the EC50 is the concentration needed to bring the measured effect to its halfway point. Lower therefore signals greater potency. Turning to “Z27: siRNA conjugate: sense SEQ ID NO:43, ligand D18 at 3' end of sense strand, antisense SEQ ID NO:66 (sense CAGCCCCTTATTGTTANACGA; antisense TCTCGTATNACAATAAGGGGCTG; ligand D18 at sense 3' end; listed as RNA; modified_base 1: mod_base = OTHER; note = 2'-O-methylcytidine; modified_base 2: mod_base = OTHER; note = 2'-O-methyladenosine; modified_base 3: mod_base = OTHER; note = 2'-O-methylguanosine; modified_base 4..7: mod_base = OTHER; note = 2'-O-me; note = 2'-O-methyluridine; modified_base 4: mod_base = OTHER; note = 2'-fluorocytidine; modified_base 5: mod_base = OTHER; note = 2'-O-methylg)”, the “% Downregulation of LPA mRNA” value with LPA mRNA is listed as 92.2%. In data set [1], this substance came in with an EC50 of 0.96 nM.

As for “Z32: siRNA conjugate: sense SEQ ID NO:47, ligand D18 at 3' end of sense strand, antisense SEQ ID NO:71 (sense GCCCCTTATTGTTANACGA; antisense TCGTATNACAATAAGGGGCTGT; ligand D18 at sense 3' end; listed as RNA; modified_base 1: mod_base = OTHER; note = 2'-O-methylguanosine; modified_base 2: mod_base = OTHER; note = 2'-O-methylcytidine; modified_base 3..5: mod_base = OTHER; modified_base 6: mod_base = OTHER; note = 2'-O-met; note = E-type vinylphosphonate-modified 2'-O-methyluridine; note = 2'-fluorocytidine; modified_base 3: mod_base = OTHER; modified_base 4: mo)”, in the data set on LPA mRNA, the “% Downregulation of LPA mRNA” value is 86.4%. The substance also had an EC50 in data set [1] of 0.21 nM.

“Z33: siRNA conjugate: sense SEQ ID NO:47, ligand D18 at 3' end of sense strand, antisense SEQ ID NO:72 (sense GCCCCTTATTGTTANACGA; antisense TCGTATNACAATAAGGGGCTGT; ligand D18 at sense 3' end; listed as RNA; modified_base 1: mod_base = OTHER; note = 2'-O-methylguanosine; modified_base 2: mod_base = OTHER; note = 2'-O-methylcytidine; modified_base 3..5: mod_base = OTHER; modified_base 6: mod_base = OTHER; note = 2'-O-met; note = E-type vinylphosphonate-modified 2'-O-methyluridine; note = 2'-fluorocytidine; modified_base 3: mod_base = OTHER; modified_base 4: mo)”: in the data set on LPA mRNA, the “% Downregulation of LPA mRNA” value is reported as 79.2%.

As for “Z34: siRNA conjugate: sense SEQ ID NO:48, ligand D18 at 3' end of sense strand, antisense SEQ ID NO:73 (sense CAGCCCCTTATTGTTANACGA; antisense TCGTATNACAATAAGGGGCNGTT; ligand D18 at sense 3' end; listed as RNA; modified_base 1: mod_base = OTHER; note = 2'-O-methylcytidine; modified_base 2: mod_base = OTHER; note = 2'-O-methyladenosine; modified_base 3: mod_base = OTHER; note = 2'-O-methylguanosine; modified_base 4..6: mod_base = OTHER; note = 2'-O-me; note = E-type vinylphosphonate-modified 2'-O-methyluridine; note = 2'-fluorocytidine; modified_base 4: mo)”, the “% Downregulation of LPA mRNA” value with LPA mRNA was found to be 78.1%. For the same substance, the concentration for a half-maximal effect (EC50) in data set [1] amounted to 3.05 nM.

For “Z35: siRNA conjugate: sense SEQ ID NO:49, ligand D18 at 3' end of sense strand, antisense SEQ ID NO:74 (sense CAGCCCCTTATTGTTATACGA; antisense TCGTATNACAATAAGGGGCNGTT; ligand D18 at sense 3' end; listed as RNA; modified_base 1: mod_base = OTHER; note = 2'-O-methylcytidine; modified_base 2: mod_base = OTHER; note = 2'-O-methyladenosine; modified_base 3: mod_base = OTHER; note = 2'-O-methylguanosine; modified_base 4..7: mod_base = OTHER; note = 2'-O-me; note = E-type vinylphosphonate-modified 2'-O-methyluridine; note = 2'-deoxycytidine; modified_base 4: mod)”, in the data set on LPA mRNA, the “% Downregulation of LPA mRNA” value was determined as 92.3%. Also, in data set [1], the concentration for a half-maximal effect (EC50) stood at 0.14 nM.

Consider “Z40: siRNA conjugate: sense SEQ ID NO:52, ligand D01 at 3' end of sense strand, antisense SEQ ID NO:78 (sense CCTGCCAAGCTTGGTCNTCTA; antisense TCTAGATGNCCAAGCTTGGCNGG; ligand D01 at sense 3' end; listed as RNA; modified_base 1..2: mod_base = OTHER; note = 2'-O-methylcytidine; modified_base 3: mod_base = OTHER; note = 2'-O-methyluridine; modified_base 4: mod_base = OTHER; note = 2'-O-methylguanosine; modified_base 5..6: mod_base = OTHER; note = 2'-O-m; modified_base 1: mod_base = OTHER; note = 2'-fluoroadenosine; modified_base 5: mod_base = OTHER; note = 2'-O-methyl)”, for which the “% Downregulation of LPA mRNA” value in the data set with LPA mRNA is 59.0%. Besides, the IL-6 stood at 1333.8 pg/mL with hPBMCs (5 µg/mL), 1266.6 pg/mL with hPBMCs (15 µg/mL) and 1343.4 pg/mL with hPBMCs (45 µg/mL). Also, the TNF alpha with hPBMCs (5 µg/mL) was found to be 35.9 pg/mL; in the data set with hPBMCs (15 µg/mL), 32.3 pg/mL; in the data set on hPBMCs (45 µg/mL), 32.7 pg/mL. Also, the EC50 in data set [1] was 0.07 nM.

As for “Z41: siRNA conjugate: sense SEQ ID NO:49, ligand D01 at 3' end of sense strand, antisense SEQ ID NO:79 (sense CAGCCCCTTATTGTTATACGA; antisense NCGTATNACAATAAGGGGCNGTT; ligand D01 at sense 3' end; listed as RNA; modified_base 1: mod_base = OTHER; note = 2'-O-methylcytidine; modified_base 2: mod_base = OTHER; note = 2'-O-methyladenosine; modified_base 3: mod_base = OTHER; note = 2'-O-methylguanosine; modified_base 4..7: mod_base = OTHER; note = 2'-O-me; note = n is B29; note = 2'-deoxycytidine; modified_base 4: mod_base = OTHER; note = 2'-O-methyluridine; m)”, the IL-6 in the data set on hPBMCs (5 µg/mL) is reported as 1362.7 pg/mL; in the data set on hPBMCs (15 µg/mL), 2424.8 pg/mL; in the data set with hPBMCs (45 µg/mL), 1537.6 pg/mL. For the same substance, the TNF alpha in the data set on hPBMCs (5 µg/mL) turned out to be 37.3 pg/mL; with hPBMCs (15 µg/mL) it was 94.0 pg/mL; in the data set on hPBMCs (45 µg/mL) it was 44.7 pg/mL. The same substance yielded an EC50 in data set [1] of 0.09 nM.
